Assays:
Prolyl endopeptidase = Prolyl endopeptidase (Sus scrofa, UniProt P23687)
Description: In vitro inhibition of prolyl oligopeptidase (POP) from pig brain

[1] = Partition coefficient (logP); assay type: physicochemical; conditions: octanol/water
[2] = biological target: Prolyl endopeptidase (Sus scrofa) (UniProt P23687); test: Compound was tested for in vitro inhibition of prolyl oligopeptidase (POP) from pig brain at 0.1 mM
Prolyl endopeptidase (Sus scrofa), sequence (P23687 whole entry, looked up): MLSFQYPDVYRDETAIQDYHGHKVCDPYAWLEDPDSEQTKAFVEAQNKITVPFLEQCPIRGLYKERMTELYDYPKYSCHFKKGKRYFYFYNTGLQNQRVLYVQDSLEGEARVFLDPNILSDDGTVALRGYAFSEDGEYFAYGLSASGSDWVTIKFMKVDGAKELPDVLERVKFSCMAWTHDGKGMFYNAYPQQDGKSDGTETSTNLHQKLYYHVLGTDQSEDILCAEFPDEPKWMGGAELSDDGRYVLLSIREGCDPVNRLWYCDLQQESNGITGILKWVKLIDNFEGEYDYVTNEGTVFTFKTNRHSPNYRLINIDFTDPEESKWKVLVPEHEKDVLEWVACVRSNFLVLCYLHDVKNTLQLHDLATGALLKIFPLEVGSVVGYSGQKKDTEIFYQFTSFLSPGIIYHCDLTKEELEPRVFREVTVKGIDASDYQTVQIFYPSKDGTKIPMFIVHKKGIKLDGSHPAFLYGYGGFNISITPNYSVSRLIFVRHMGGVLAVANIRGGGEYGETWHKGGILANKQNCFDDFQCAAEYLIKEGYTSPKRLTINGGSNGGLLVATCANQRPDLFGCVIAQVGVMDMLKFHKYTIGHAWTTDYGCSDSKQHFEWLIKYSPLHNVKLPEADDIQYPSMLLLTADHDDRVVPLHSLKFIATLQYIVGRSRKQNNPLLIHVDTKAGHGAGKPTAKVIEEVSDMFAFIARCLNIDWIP

Prolyl endopeptidase, sequence (P23687 whole entry): as the sequence (P23687 whole entry, looked up) above

SMILES	IC50 (Prolyl endopeptidase) [µM]	logP [1]	inhibition [2] [%]
O=C(C1CCCC1)[C@H]1CCCN1C(=O)c1cccc(C(=O)N2CCC[C@H]2C(=O)N2CCCC2)c1	0.014		
O=C(NCc1ccccc1)[C@@H]1CCCN1C(=O)c1cccc(C(=O)N2CCC[C@@H]2C(=O)N2CCCC2)c1	0.031		
C[C@H](NC(=O)c1cccc(C(=O)N[C@H](C)C(=O)N2CCCC2)c1)C(=O)N1CCCC1	0.087		
O=C([C@H]1CCCN1C(=O)c1cccc(C(=O)N2CCC[C@H]2C(=O)N2CCCCCC2)c1)N1CCCC1	0.023		
CSCC[C@H](NC(=O)c1cccc(C(=O)N[C@H](CCSC)C(=O)N2CCCC2)c1)C(=O)N1CCCC1	0.11		
O=C(CO)[C@@H]1CCCN1C(=O)[C@@H]1CCCN1C(=O)c1cccc(C(=O)N2CCC[C@H]2C(=O)N2CCCC2)c1	0.00039		
N#C[C@H]1CCCN1C(=O)[C@@H]1CCCN1C(=O)c1cccc(C(=O)N2CCC[C@@H]2C(=O)c2ccccc2)c1	0.0013	1.1	
COC(=O)[C@H]1CCCN1C(=O)c1cccc(C(=O)N2CCC[C@H]2C(=O)C2CCCC2)c1	0.64		
CC(C)(CC(=O)N1CCC[C@H]1C(=O)C1CCCC1)CC(=O)N1CCC[C@H]1C(=O)N1CCC[C@H]1C#N	0.00057		
O=C(c1ccccc1)[C@H]1CCCN1C(=O)c1cccc(C(=O)N2CCC[C@H]2C(=O)N2CCCC2)c1	0.018		
CC(=O)[C@H]1CCCN1C(=O)c1cccc(C(=O)N2CCC[C@H]2C(=O)N2CCCC2)c1	0.065		
CC(=O)[C@H]1CCCN1C(=O)c1cccc(C(=O)N2CCC[C@H]2C(=O)N2CCC[C@@H]2C(=O)CO)c1	0.0012		
O=C([C@@H]1CCCN1C(=O)c1cccc(C(=O)N2CCC[C@H]2C(=O)N2CCCC2)c1)N1CCCC1		-0.2	
N#C[C@H]1CCCN1C(=O)[C@@H]1CCCN1C(=O)c1cccc(C(=O)N2CCC[C@@H]2C(=O)C2CCCCC2)c1	0.00072		
O=C(N[C@@H](Cc1ccccc1)C(=O)N1CCCC1)c1cccc(C(=O)N[C@H](Cc2ccccc2)C(=O)N2CCCC2)c1	0.081		
CC(C)(CC(=O)N1CCC[C@H]1C(=O)C1CCCC1)CC(=O)N1CCC[C@H]1C(=O)N1CCC[C@H]1C(=O)CO		0.7	
CC(C)(C)OC(=O)N1CCN(C(=O)[C@H]2CCCN2C(=O)c2cccc(C(=O)N3CCC[C@H]3C(=O)N3CCCC3)c2)CC1	0.17		
N#C[C@H]1CCCN1C(=O)[C@@H]1CCCN1C(=O)c1cccc(C(=O)N2CCC[C@@H]2C(=O)C2CCCC2)c1	0.0011	0.8	
C[C@H](NC(=O)c1cccc(C(=O)N2CCC[C@H]2C(=O)N2CCCC2)c1)C(=O)N1CCCC1	0.039		
COC(=O)[C@H]1CCCN1C(=O)c1cccc(C(=O)N2CCC[C@H]2C(=O)N2CCCC2)c1	0.054		
O=C(CO)[C@H]1CCCN1C(=O)[C@@H]1CCCN1C(=O)c1cccc(C(=O)N2CCC[C@@H]2C(=O)C2CCCC2)c1	0.00061	0.2	
O=C(C1CCCC1)[C@H]1CCCN1C(=O)c1cccc(C(=O)N2CCC[C@H]2C(=O)C2CCCC2)c1	0.078	2.7	
O=C([C@H]1CCCN1C(=O)c1cccc(C(=O)N2CCC[C@H]2C(=O)N2CCNCC2)c1)N1CCCC1	0.033		
O=C(NCC(=O)N1CCCC1)c1cccc(C(=O)NCC(=O)N2CCCC2)c1	0.64		
CC(=O)[C@H]1CCCN1C(=O)c1cccc(C(=O)N2CCC[C@H]2C(=O)N2CCC[C@@H]2C#N)c1	0.0042	-0.6	
CC(C)C(=O)[C@H]1CCCN1C(=O)c1cccc(C(=O)N2CCC[C@H]2C(=O)N2CCC[C@@H]2C#N)c1	0.0016	0.3	
CC(=O)[C@H]1CCCN1C(=O)c1cccc(C(=O)N2CCC[C@H]2C(C)=O)c1			54

Reference: ChEMBL document CHEMBL1145128, “New prolyl oligopeptidase inhibitors developed from dicarboxylic acid bis(l-prolyl-pyrrolidine) amides” (J Med Chem, 2003)
